# Source: ChEMBL document CHEMBL1201862, “PubChem BioAssay data set” (2004)
# The source made the active and inactive calls.
# What was measured:
# [1] = inhibitors of intracellular T. cruzi replication, confirmation, NIH3T3 host cells, beta-gal luminescence (AID 2044); type: functional, cell-based;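 note: intracellular parasites grown in NIH/3T3 mouse fibroblasts as host cells; luminescent beta-galactosidase reporter signal from transgenic T. cruzi replicating inside host cells; inhibitors lower the luminescence signal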
# [2] = system: Streptococcus sp. 'group A'; test: growth inhibition of control SK(-) GAS strain, dose response, counter-screen for streptokinase expression inhibitor project, luminescence, kanamycin, BacTiterGlo, confirmation (AID 1900); type: functional, organism-based
# [3] = growth suppression of beta-catenin-knockout colon cells, dose response, cell-based, HCT116, human colon tumor (AID 1045); type: functional;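 note: HCT116 colon tumor cells with beta catenin knocked out; cells exposed to compound for 60 hours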
# [4] = target: T1, Cysteine protease ATG4B (Homo sapiens, UniProt Q9Y4P1); type: functional;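 note: Fluorescence-based dose-response confirmation assay measuring inhibition of ATG4B activity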
# T1 sequence (Q9Y4P1 whole entry): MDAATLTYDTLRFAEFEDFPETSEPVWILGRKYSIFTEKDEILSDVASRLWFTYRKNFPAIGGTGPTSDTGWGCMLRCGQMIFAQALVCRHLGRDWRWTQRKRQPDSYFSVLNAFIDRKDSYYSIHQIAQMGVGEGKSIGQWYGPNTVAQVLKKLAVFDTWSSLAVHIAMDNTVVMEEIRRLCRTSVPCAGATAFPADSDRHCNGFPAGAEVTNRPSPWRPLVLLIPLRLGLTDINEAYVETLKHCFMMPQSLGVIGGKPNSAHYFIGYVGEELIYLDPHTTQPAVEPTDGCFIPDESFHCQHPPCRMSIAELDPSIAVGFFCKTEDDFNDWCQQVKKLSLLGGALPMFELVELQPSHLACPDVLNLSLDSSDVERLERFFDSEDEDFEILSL
# [5] = target: T2, Streptokinase A (Streptococcus pyogenes serotype M1, UniProt P10520); test: S. pyogenes streptokinase expression inhibitors, potency, dose response, plasminogen activation absorbance, OD405 (AID 1914); type: functional, Streptococcus pyogenes M1 GAS;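 note: secreted streptokinase activity via plasminogen activation per viability signal from cell pellet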
# T2 sequence (P10520 whole entry): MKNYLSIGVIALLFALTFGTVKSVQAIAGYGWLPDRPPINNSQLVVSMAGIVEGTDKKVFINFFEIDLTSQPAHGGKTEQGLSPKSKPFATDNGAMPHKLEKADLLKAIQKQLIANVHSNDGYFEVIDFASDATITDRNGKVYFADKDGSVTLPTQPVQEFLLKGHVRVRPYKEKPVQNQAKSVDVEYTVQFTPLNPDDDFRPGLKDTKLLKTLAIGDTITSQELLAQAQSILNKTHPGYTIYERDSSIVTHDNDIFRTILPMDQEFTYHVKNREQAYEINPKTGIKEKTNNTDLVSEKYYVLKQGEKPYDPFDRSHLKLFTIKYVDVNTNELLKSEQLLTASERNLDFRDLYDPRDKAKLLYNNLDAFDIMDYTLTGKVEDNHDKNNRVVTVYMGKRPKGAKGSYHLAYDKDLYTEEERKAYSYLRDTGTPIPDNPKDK
# [6] = system: Vero; test: cells; type: functional; conditions: Chlorocebus sabaeus
# [7] = C. albicans growth with fluconazole, confirmation, fluorescence, retest (AID 2467); type: functional, cell-based
# [8] = growth suppression of PTEN-null colon cells, dose response, cell-based, HCT116 PTEN knockout (AID 1047); type: functional;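 note: HCT116 colon tumor cells with PTEN knocked out; cells exposed to compound for 60 hours before readout; potency for loss of cell viability measured by luminescence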
# [9] = target: T3, DNA repair protein RAD52 homolog (Homo sapiens, UniProt P43351); type: functional, biochemical
# T3 sequence (P43351 whole entry): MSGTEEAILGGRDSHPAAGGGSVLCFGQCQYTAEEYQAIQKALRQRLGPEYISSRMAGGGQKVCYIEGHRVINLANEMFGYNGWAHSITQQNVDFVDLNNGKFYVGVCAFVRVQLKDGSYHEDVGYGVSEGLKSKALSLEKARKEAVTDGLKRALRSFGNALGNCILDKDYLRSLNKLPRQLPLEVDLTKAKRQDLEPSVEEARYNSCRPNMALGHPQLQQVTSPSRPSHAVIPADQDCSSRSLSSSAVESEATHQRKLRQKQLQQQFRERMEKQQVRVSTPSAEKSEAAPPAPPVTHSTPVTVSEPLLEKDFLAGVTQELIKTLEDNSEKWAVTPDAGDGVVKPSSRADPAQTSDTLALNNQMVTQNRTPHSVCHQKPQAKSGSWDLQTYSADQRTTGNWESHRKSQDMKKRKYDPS
# [10] = cytotoxicity toward NIH3T3 fibroblasts, dose response, counter-screen, cell-based, ATP luminescence, mouse fibroblasts (AID 2010); type: functional;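 note: cells exposed to compound for about 90 hours before reading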
# [11] = target: Phospholipase A2 (Homo sapiens, UniProt P04054); type: functional;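 note: confirmatory dose-response counterscreen on phospholipase A2, testing hits that came from an ultra-high-throughput screen for ATG4B inhibitors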
# Sequence of Phospholipase A2 (P04054 whole entry): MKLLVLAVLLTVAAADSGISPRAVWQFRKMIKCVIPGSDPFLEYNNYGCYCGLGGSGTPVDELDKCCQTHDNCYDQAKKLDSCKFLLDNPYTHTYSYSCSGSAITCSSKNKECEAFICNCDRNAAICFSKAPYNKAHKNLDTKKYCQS
# [12] = NIH-3T3 fibroblast cytotoxicity, dose response, cytotoxicity control, cell-based, fluorescence, Alamar Blue, secondary assay (AID 2327); type: functional;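 note: NIH-3T3 mouse fibroblasts cultured with fluconazole at 8 µg/mL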
# [13] = system: Streptococcus; test: Group A Streptococcus viability loss, dose response, counter-screen for streptokinase expression inhibitor project, luminescence, BacTiterGlo (AID 1915); type: functional, organism-based;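 note: potency for reduction of bacterial viability or growth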
# [14] = system: HEK293; test: cells; type: functional, cell-based; conditions: Homo sapiens
# [15] = system: HEK293; test: cells; type: functional, cell-based; conditions: Homo sapiens; remark: listed apart in the source
# [16] = system: HEK293; test: NOD2 signaling inhibitors in MDP-stimulated cells, cell-based, uHTS, luminescence (AID 2001); type: functional; conditions: Homo sapiens
# [17] = target: Nucleotide-binding oligomerization domain-containing protein 2 (Homo sapiens, UniProt Q9HC29); test: NOD2 signaling inhibitors, cell-based, luminescence, uHTS, HEK293 (AID 1566); type: functional
# Sequence of Nucleotide-binding oligomerization domain-containing protein 2 (Q9HC29 whole entry, the tested form may be a part): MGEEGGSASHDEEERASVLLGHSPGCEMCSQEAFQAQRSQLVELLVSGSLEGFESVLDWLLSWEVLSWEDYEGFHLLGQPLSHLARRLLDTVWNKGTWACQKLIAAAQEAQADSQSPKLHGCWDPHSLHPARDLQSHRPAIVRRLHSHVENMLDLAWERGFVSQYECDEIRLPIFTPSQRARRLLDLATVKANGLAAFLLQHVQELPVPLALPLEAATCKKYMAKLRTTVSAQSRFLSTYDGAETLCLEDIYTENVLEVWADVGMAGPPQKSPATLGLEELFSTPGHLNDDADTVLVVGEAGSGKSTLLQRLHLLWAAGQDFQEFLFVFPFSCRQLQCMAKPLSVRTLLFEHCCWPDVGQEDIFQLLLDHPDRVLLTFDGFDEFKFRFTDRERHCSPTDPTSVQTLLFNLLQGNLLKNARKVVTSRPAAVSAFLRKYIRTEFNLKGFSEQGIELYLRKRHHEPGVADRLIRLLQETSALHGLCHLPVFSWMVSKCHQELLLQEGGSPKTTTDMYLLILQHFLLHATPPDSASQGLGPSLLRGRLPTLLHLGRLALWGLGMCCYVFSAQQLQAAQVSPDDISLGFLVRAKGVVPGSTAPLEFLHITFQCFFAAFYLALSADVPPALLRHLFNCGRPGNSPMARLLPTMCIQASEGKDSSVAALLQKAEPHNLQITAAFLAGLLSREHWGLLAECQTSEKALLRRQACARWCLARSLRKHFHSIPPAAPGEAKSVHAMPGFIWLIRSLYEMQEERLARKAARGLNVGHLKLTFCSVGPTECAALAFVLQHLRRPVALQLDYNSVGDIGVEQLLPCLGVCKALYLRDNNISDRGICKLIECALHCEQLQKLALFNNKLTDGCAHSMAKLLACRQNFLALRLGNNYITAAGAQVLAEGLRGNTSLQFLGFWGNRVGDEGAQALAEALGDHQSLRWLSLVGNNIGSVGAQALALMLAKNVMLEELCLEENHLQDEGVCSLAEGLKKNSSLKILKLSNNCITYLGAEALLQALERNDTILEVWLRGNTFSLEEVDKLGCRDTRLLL
# [18] = system: HEK293; test: NOD1 signaling inhibitors, primary screen, cell-based, luminescence, uHTS (AID 1578); type: functional; conditions: Homo sapiens
# [19] = system: HEK293; test: cells; type: functional, cell-based; conditions: Homo sapiens; remark: listed apart in the source
# [20] = target: T4, RNA-binding protein pos-1 (Caenorhabditis elegans, UniProt G5EF15); test: inhibitors of POS-1/mex-3 RNA binding, dose response, biochemical, fluorescence polarization (AID 1964);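 note: purified POS-1 fused to maltose binding protein made in E. coli; potency of compounds blocking POS-1 binding to fluorescent RNA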
# T4 sequence (G5EF15 whole entry): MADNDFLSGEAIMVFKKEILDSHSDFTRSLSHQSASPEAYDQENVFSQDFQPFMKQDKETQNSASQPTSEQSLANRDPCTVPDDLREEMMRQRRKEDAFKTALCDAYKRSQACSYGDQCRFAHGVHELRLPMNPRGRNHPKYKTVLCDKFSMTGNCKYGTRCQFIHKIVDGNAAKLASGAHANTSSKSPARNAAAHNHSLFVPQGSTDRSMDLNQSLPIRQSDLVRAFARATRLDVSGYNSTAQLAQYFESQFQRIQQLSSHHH
# [21] = target: T5, Zinc finger protein mex-5 (Caenorhabditis elegans, UniProt Q9XUB2); test: MEX-5/TCR-2 RNA interaction inhibitors, dose response, biochemical, C. elegans, fluorescence polarization (AID 1960)
# T5 sequence (Q9XUB2 whole entry): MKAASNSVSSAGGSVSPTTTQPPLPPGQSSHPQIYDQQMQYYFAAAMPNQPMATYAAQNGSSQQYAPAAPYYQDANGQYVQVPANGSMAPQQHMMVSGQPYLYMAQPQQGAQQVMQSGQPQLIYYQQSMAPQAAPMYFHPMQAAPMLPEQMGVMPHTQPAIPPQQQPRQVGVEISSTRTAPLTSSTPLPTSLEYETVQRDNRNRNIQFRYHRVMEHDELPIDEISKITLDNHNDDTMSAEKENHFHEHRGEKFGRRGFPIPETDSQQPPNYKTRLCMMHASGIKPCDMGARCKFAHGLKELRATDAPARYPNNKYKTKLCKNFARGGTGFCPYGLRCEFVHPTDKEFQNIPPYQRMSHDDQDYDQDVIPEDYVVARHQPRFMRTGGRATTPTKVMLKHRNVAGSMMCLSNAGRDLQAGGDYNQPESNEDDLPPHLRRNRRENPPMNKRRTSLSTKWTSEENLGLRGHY
# [22] = target: Peroxisome proliferator-activated receptor gamma/Nuclear receptor coactivator 1 (Homo sapiens, UniProt P37231); test: (§1) TR-FRET dose response biochemical High Throughput Screening assay for agonists of the steroid receptor coactivator 1 (SRC-1) recruitment by the peroxisome proliferator-activated receptor gamma (PPAR gamma): non-selective agonists. [Related pubchem assays (depositor defined):AID1300, AID1808, AID504735, AID631]; type: protein assay
# [23] = target: Peroxisome proliferator-activated receptor gamma/Nuclear receptor coactivator 3 (Homo sapiens, UniProt P37231); test: as §1, with “3 (SRC-3)” for “1 (SRC-1)”, “assays: 1301 (Confirmation screen.), 1048 (Primary screen.)]” for “assays (depositor defined):AID1300, AID1808, AID504735, AID631]”; type: functional
# [24] = target: Peroxisome proliferator-activated receptor gamma/Nuclear receptor coactivator 2 (Homo sapiens, UniProt P37231); test: TR-FRET dose response biochemical High Throughput Screening assay for agonists of the steroid receptor coactivator 2 (SRC-2) recruitment by the peroxisome proliferator-activated receptor gamma (PPAR gamma): non-selective agonists. [Related pubchem assays: 1297, 1032 ]; type: functional
# Sequence of Peroxisome proliferator-activated receptor gamma/Nuclear receptor coactivator 2 (P37231 whole entry): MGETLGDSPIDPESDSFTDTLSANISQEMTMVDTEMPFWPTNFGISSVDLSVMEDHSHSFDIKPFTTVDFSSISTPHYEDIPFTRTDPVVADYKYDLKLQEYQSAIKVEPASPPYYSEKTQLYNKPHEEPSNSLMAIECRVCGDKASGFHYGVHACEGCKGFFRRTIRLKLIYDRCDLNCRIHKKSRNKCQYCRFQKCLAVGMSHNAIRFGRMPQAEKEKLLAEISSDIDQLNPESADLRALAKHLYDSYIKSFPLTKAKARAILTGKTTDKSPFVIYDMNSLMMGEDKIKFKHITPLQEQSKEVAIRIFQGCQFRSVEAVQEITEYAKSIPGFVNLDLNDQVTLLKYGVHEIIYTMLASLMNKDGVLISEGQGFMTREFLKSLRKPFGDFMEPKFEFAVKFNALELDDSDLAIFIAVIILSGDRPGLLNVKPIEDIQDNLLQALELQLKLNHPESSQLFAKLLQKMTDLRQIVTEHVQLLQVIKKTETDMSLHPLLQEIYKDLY
# Sequence of Peroxisome proliferator-activated receptor gamma/Nuclear receptor coactivator 2 (Q15596 whole entry, further chain): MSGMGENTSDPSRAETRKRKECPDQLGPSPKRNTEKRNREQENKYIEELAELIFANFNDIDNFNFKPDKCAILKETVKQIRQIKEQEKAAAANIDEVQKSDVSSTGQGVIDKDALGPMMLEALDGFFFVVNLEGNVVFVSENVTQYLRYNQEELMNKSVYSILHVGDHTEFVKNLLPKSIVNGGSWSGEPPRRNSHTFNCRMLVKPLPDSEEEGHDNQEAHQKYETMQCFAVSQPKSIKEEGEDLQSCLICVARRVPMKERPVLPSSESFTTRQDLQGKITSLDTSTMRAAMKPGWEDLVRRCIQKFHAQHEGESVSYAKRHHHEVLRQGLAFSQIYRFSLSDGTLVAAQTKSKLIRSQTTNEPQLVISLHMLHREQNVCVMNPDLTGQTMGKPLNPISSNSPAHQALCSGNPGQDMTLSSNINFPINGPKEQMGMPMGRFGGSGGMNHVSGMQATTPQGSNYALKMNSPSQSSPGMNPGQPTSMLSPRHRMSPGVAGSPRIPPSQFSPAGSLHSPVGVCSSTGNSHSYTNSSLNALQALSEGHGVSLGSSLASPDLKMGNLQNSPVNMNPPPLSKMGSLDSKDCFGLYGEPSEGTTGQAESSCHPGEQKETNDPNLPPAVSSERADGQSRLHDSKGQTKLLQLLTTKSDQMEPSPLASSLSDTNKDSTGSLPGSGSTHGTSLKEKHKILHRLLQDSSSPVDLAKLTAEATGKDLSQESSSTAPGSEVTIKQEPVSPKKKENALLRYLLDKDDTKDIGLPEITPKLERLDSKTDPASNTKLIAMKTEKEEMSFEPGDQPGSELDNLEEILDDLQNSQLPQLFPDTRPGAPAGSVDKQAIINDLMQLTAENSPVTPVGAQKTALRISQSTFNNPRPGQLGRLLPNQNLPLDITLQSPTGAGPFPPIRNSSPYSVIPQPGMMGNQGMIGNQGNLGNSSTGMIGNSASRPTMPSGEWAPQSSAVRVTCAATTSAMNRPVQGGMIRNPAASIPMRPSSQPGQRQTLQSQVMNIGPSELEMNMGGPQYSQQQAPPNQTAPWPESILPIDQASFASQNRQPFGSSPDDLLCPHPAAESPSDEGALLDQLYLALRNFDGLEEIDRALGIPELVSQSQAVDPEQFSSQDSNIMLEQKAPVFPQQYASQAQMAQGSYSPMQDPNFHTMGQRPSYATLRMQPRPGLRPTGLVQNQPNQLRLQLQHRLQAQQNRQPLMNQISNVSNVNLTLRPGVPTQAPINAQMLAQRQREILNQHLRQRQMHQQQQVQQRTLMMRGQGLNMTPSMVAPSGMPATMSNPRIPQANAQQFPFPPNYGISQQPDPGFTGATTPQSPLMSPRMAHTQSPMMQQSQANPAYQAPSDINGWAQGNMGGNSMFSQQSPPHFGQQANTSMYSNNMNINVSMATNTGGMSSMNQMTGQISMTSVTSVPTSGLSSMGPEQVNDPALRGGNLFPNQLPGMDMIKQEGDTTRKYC
# [25] = target: Cytochrome P450 2C9 (Homo sapiens, UniProt P11712)
# Sequence of Cytochrome P450 2C9 (P11712 whole entry): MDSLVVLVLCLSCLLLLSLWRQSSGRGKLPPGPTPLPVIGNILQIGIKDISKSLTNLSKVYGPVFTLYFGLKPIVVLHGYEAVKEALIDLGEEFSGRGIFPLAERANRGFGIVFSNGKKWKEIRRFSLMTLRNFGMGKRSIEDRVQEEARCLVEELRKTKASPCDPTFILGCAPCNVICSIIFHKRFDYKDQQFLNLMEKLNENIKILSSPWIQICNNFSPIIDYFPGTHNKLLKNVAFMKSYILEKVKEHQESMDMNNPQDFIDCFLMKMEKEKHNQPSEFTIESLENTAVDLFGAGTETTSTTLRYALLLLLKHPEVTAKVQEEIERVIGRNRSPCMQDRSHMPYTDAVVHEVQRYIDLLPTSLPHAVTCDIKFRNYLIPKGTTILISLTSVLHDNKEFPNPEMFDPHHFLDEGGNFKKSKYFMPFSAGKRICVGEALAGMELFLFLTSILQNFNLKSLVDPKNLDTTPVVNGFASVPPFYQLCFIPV
# [26] = target: T6, Cytochrome P450 1A2 (Homo sapiens, UniProt P05177);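 note: PubChem cytochrome P450 panel assay, CYP1A2 panel member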
# T6 sequence (P05177 whole entry): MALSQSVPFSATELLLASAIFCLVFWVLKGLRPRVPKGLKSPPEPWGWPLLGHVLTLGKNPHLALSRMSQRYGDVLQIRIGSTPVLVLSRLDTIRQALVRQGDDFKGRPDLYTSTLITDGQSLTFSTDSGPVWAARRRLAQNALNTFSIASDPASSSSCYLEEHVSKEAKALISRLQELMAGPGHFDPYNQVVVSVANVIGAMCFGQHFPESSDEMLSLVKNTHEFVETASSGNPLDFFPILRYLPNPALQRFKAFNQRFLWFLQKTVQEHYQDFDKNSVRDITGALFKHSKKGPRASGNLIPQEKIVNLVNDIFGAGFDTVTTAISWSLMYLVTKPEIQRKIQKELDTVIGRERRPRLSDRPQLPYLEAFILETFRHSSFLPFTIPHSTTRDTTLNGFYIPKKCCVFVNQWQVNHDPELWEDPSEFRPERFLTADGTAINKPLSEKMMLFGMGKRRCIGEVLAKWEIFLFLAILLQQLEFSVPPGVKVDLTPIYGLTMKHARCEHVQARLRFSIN
# [27] = target: Cytochrome P450 2D6 (Homo sapiens, UniProt P10635);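 note: CYP2D6 member of a cytochrome P450 panel assay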
# Sequence of Cytochrome P450 2D6 (P10635 whole entry): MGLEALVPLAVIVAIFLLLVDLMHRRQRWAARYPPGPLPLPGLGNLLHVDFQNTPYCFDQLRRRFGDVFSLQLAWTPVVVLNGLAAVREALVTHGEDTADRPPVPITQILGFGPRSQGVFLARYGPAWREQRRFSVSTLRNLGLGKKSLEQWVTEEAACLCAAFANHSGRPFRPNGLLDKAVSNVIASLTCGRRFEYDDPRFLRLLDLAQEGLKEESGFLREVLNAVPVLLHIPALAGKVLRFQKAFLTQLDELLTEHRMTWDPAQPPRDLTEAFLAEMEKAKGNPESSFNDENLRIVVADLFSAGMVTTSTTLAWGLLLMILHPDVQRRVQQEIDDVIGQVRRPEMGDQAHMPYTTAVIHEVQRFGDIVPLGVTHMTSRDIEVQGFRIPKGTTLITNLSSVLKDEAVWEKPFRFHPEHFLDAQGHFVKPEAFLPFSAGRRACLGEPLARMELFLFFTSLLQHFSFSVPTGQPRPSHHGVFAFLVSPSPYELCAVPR
# [28] = target: T7, fMet-Leu-Phe receptor (Homo sapiens, UniProt P21462); test: FPR ligands, dose response (AID 519); type: functional
# T7 sequence (P21462 whole entry): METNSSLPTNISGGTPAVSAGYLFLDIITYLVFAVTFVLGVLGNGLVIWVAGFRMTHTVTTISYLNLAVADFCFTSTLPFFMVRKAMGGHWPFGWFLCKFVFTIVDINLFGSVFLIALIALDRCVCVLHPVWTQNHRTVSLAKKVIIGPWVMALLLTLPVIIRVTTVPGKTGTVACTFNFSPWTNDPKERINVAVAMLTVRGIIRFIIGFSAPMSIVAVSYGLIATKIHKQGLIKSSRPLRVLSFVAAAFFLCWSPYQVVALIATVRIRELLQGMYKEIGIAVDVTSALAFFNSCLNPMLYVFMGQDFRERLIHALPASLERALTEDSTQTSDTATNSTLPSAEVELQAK
# [29] = target: Cytochrome P450 2C19 (Homo sapiens, UniProt P33261); test: Cytochrome panel assay with activity outcomes. Panel member name: p450-cyp2c19 Compounds with AC50 equal or less than 10 uM are considered active; type: functional; conditions: read-out: AC50
# Sequence of Cytochrome P450 2C19 (P33261 whole entry): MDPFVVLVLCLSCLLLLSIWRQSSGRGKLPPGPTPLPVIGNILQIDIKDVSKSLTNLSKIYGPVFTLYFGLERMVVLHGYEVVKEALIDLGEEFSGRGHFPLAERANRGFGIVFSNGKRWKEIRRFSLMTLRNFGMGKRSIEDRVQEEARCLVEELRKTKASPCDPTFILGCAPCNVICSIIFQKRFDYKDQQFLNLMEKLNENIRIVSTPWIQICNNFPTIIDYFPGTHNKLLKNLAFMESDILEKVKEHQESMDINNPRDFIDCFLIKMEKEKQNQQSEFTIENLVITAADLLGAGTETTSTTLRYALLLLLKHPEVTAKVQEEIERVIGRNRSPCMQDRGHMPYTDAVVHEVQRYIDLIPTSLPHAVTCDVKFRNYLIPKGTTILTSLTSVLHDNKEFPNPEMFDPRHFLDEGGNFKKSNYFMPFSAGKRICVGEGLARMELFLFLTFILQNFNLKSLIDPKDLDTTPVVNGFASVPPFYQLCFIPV
smiles,measurement,setting,value
CCCCCCCOC(=O)C[N+](C)(C)CCOC1CC2CCC1(C)C2(C)C (stereo not drawn),EC50,[1],224 nM (active)
same,EC50,[2],3.84 µM (active)
same,EC50,[3],20.2 µM (active)
same,IC50,[4],7.62 µM (active)
same,EC50,[5],5.77 µM (active)
same,CC50,[6],> 25 µM (active)
same,EC50,[7],997 nM (active)
same,EC50,[8],15.8 µM (active)
same,AC50,[9],29.2 µM (active)
same,EC50,[10],> 60 µM (not active)
same,IC50,[11],10.3 µM (active)
same,EC50,[12],> 150 µM (inactive)
same,EC50,[13],9.21 µM (active)
COc1ccc(-c2cc(=O)oc3cc(O)ccc23)cc1,IC50,[14],> 20 µM (inactive)
same,IC50,[15],> 20 µM (inactive)
same,IC50,[16],3.06 µM (active)
same,EC50,[17],5.73 µM (active)
same,EC50,[18],5.67 µM (active)
same,IC50,[19],2.45 µM (active)
Cc1nnc(N2C(=O)C(O)=C(C(=O)c3ccco3)C2c2ccc(F)cc2)s1 (stereo not drawn),EC50,[20],34.2 µM (active)
same,EC50,[21],32.9 µM (active)
same,EC50,[22],> 79.4 µM (inactive)
same,EC50,[23],> 79.4 µM (not active)
same,EC50,[24],27 µM (not active)
Oc1nc(-c2ccccc2)cc(C(F)(F)F)n1,AC50,[25],6.31 µM (inconclusive)
same,AC50,[26],11.2 µM (inconclusive)
same,AC50,[27],inconclusive
Cc1onc(-c2ccccc2)c1CNC(=O)Nc1cccc(Cl)c1,IC50,[4],15 µM (active)
same,IC50,[11],8.35 µM (active)
O=C(O)C1CCCCC1C(=O)Nc1ccccc1Cl (stereo not drawn),Ki,[28],> 66.7 µM (inactive)
same,AC50,[27],inconclusive
same,AC50,[29],2.24 µM (inconclusive)
Cc1ccc2cccc(/N=C/c3c(C)[nH]n(-c4ccccc4)c3=O)c2n1,IC50,[14],> 20 µM (inactive)
same,IC50,[15],> 20 µM (inactive)
same,IC50,[16],7.67 µM (active)
same,EC50,[17],> 20 µM (inactive)
same,EC50,[18],4.72 µM (active)
same,IC50,[19],> 20 µM (inactive)
